According to ChEMBL document CHEMBL1201862, “PubChem BioAssay data set” (2004):
Activity calls are given as the source filed them.

Columns and labels:
[1] = target: Paired box protein Pax-8 (Homo sapiens, UniProt Q06710); test: PAX8 transcriptional activity inhibition in RMG-I – RMG-I cells, luciferase, cherry-pick, dose response (AID 687027); assay type: functional, cell-based;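 further: luciferase reporter driven by Pax8 target thyroperoxidase promoter measured by SteadyGlo luminescence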
[2] = general cell-killing toxicity readout – plate reader, dry powder samples, cytotoxicity control for PAX8 inhibitor project, dose response (AID 743021); assay type: functional, cell-based
[3] = OVCAR-3 cell viability loss – plate reader, dry powder samples, PAX8 inhibitor project, dose response (AID 743044); assay type: functional, cell-based
[4] = blockers of HIV-1 envelope-mediated cell-cell fusion – cherry-pick, dose response (AID 652057); assay type: functional, cell-based
[5] = viability loss in CEM21 cells – cell-based, CellTiter-Glo luminescence, cherry-picked, cytotoxicity control for viral fusion inhibitor project, dose response (AID 652042); assay type: functional;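 further: potency for signal decrease meaning cytotoxicity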
[6] = HIV-1 AD8 envelope cell-cell fusion blockers – cherry-pick, dose response (AID 652062); assay type: functional, cell-based;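 further: luciferase signal from cell-cell fusion driven by HIV-1 clade B AD8 Env; potency is for inhibitors of fusion seen as a drop in luminescence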
[7] = OVCAR8 cell viability loss – plate reader, dry powder samples, PAX8 project, dose response (AID 743197); assay type: functional, cell-based; conditions: OVCAR-8
[8] = A cytotoxicity screen of small molecule inhibitors of the PhoP region in Salmonella typhi identified in the primary screen. [Related pubchem assays: 1850, 1864, 1985 ]; assay type: functional
[9] = tested on: Streptococcus sp. 'group A'; test: Streptococcus pyogenes SK(-)GAS viability under kanamycin – luminescence, BacTiterGlo, confirmation, counter-screen for streptokinase expression inhibitor project, dose response (AID 1900); assay type: functional, organism-based
[10] = target: T1, Streptokinase A (Streptococcus pyogenes serotype M1, UniProt P10520); test: viability-normalized secreted streptokinase activity reduction – plasminogen activation absorbance, OD405, dose response (AID 1914); assay type: functional, Streptococcus pyogenes M1 GAS;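 further: secreted streptokinase activity via plasminogen activation per viability signal from cell pellet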
T1 sequence (P10520 whole entry): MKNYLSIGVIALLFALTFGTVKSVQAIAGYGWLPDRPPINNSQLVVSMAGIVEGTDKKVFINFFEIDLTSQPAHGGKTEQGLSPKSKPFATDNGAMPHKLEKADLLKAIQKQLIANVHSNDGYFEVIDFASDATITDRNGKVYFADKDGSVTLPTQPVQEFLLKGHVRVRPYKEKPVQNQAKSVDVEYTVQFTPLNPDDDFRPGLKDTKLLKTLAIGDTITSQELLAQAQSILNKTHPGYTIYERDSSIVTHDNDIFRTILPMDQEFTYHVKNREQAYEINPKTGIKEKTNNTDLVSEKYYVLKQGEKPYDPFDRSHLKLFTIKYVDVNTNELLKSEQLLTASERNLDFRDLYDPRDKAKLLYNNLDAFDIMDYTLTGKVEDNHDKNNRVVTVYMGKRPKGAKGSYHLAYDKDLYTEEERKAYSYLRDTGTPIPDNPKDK

[11] = tested on: Streptococcus; test: GAS UMAA2166 growth inhibition – luminescence, BacTiterGlo, counter-screen for streptokinase expression inhibitor project, dose response (AID 1915); assay type: functional, organism-based;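 further: potency for reduction of bacterial viability or growth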
[12] = target: T2, Sentrin-specific protease 8 (Homo sapiens, UniProt Q96LD8); assay type: functional
T2 sequence (Q96LD8 whole entry): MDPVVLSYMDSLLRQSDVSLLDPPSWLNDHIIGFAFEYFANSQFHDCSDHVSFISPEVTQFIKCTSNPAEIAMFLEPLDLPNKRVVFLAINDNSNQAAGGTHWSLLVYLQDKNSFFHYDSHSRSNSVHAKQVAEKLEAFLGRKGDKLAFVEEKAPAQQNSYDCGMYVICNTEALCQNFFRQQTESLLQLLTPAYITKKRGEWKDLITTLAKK

[13] = target: T2, Sentrin-specific protease 8; assay type: functional; remark: listed apart in the source
[14] = target: T3, Heat shock factor protein 1 (Mus musculus, UniProt P38532); test: enhancement of HSF1-driven luciferase signal – cell-based, NIH3T3, luminescence, dose retest, confirmation (AID 435004); assay type: functional;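 further: stress induced by proteasome inhibitor MG132 added 30 min after compound; luciferase reporter driven by HSF1 response element in NIH3T3 cells; actives raise luminescence as potentiators of the MG132 stress response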
T3 sequence (P38532 whole entry): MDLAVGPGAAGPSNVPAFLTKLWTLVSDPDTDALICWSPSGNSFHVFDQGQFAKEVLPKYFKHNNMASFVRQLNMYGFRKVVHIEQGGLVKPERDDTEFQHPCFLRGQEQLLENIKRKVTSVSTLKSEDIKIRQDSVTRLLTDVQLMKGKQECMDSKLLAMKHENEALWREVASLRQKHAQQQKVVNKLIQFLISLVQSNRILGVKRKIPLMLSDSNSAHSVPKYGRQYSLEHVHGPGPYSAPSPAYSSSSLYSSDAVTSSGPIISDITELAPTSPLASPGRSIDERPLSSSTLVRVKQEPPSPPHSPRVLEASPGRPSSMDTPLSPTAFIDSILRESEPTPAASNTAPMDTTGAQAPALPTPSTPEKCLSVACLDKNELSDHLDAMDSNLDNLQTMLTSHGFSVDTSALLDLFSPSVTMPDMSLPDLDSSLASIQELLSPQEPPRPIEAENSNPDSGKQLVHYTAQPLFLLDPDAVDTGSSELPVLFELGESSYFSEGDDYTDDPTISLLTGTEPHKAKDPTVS

[15] = viability loss in HeLa cells – cytotoxicity control for MgcRacGAP inhibitor project, dose response (AID 624300); assay type: functional
[16] = target: T4, Rac GTPase-activating protein 1 (Homo sapiens, UniProt Q9H0H5); test: blockers of MgcRacGAP-driven Rac1 GTP hydrolysis – biochemical, ADP Hunter fluorescence, primary and confirmatory, confirmation (AID 624330); assay type: functional
T4 sequence (Q9H0H5 whole entry): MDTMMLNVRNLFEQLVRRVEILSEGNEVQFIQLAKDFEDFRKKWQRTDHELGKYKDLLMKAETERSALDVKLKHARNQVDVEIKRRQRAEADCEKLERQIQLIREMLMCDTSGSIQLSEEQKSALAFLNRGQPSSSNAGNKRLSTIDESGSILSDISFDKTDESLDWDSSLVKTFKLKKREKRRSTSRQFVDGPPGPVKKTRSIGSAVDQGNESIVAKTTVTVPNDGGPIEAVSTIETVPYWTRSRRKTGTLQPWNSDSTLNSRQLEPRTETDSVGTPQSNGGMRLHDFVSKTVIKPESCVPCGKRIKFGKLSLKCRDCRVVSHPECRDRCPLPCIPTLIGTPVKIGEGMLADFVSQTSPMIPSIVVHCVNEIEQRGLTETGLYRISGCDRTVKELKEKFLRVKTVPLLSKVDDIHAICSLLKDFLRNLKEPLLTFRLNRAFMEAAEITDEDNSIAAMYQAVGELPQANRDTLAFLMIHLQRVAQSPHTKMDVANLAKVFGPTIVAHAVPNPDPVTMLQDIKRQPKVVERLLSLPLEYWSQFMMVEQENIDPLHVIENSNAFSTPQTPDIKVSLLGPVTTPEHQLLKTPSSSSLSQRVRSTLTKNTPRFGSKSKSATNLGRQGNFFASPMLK

Paired box protein Pax-8, sequence (Q06710 whole entry): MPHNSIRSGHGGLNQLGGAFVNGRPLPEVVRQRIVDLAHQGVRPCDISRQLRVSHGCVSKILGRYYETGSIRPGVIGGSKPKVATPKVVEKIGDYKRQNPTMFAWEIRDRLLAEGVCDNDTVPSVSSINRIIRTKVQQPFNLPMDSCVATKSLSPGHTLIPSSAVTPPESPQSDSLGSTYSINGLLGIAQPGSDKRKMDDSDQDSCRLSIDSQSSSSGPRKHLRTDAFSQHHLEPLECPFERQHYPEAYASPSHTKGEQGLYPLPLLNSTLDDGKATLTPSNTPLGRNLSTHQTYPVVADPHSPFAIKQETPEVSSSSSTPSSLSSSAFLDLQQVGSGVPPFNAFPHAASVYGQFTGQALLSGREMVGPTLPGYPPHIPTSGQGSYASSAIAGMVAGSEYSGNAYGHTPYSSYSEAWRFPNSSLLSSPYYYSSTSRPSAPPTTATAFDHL

For `N=C(N)N/N=C(\c1ccc(F)cc1)c1ccc(C(F)(F)F)cc1`, the AC50 [1] was 3.32 µM (active) and the AC50 [2] was 39.9 µM (active).
With `O=C1CN(S(=O)(=O)Cc2ccccc2)C[C@H]2[C@H](c3ccc(C#Cc4ccc(F)cc4)cc3)[C@H](CO)N12` the AC50 [1] was 8.12 µM (active), the AC50 [3] was 32.6 µM (active) and the AC50 [2] was 56 µM (active).
In the case of `COc1cccc(S(=O)(=O)N(C)C[C@@H]2OCc3ccccc3-c3c(n(C)c4ccccc34)C(=O)N([C@@H](C)CO)C[C@@H]2C)c1`, the AC50 [4] is reported as 16.5 µM (active), the AC50 [5] is reported as 34.8 µM (active) and the AC50 [1] is reported as 5.8 µM (active). The AC50 [6] was 19.2 µM (active) and the AC50 [7] was > 70 µM (inactive).
With `COc1cccc(S(=O)(=O)N2CC3(CN(C(=O)Nc4cccc(F)c4)[C@@H](CO)c4[nH]c5cc(OC)ccc5c43)C2)c1` the AC50 [4] was 0.986 µM (active), the AC50 [5] was 26.1 µM (active) and the AC50 [6] was 27.1 µM (active).
With `O=[N+]([O-])c1ccc(/C=[N+](\[O-])CCO)o1` the EC50 [8] was > 50 µM (active), the EC50 [9] was 3.97 µM (active) and the EC50 [10] was > 150 µM (not active). The EC50 [11] was 9.91 µM (active), the IC50 [12] was 43.4 µM (active) and the IC50 [13] was 16.7 µM (active).
In the case of `O=S(=O)(c1ccc(Cl)c(NC(=S)N/N=C/c2ccc(O)cc2)c1)N1CCOCC1`, the EC50 [14] is reported as > 260 µM (inactive), the CC50 [15] is reported as 45.7 µM (active) and the IC50 [16] is reported as 47.6 µM (active).
